Legend:
[1] = Additional study: grade 3 or greater treatment-emergent adverse events; assay type: in vivo, human
p4E-BP1 (T37/46) = assay: Human peripheral blood mono-nucleocyte biomarker assay (Phosflow, Phase I trial); assay type: in vivo; conditions: all dosing regimens
Experimental: A BD Biosciences Phosflow assay was conducted using human peripheral blood cells. Whole blood was lysed and fixed using the provided BD Lyse/Fix buffer and permeabilized with BD Perm III buffer. Peripheral blood cells were isolated and stained using CD33 and CD20 as extracellular markers and p4E-BP1 (T37/46) as the intracellular biomarker. Cell type populations were identified as monocytes (CD33+), granulocytes (CD33 dim), lymphocytes (CD33−), B-cells (CD33−, CD20+) and T &NK cells (CD33−, CD20−) by FACS analysis. The median fluorescense intensity (MFI) of each cell type was analyzed along with the percentage of p4E-BP1 positive cells.
Pharmacodynamic (PD) endpoints were evaluated in surrogate (peripheral blood cells [PBCs], skin) and tumor tissues for the phosphorylation of TORC1-dependent markers (4EBP1/S6), and TORC2-dependent markers (AKT/PRAS40). 50 patients were treated in 3 intermittent dosing regimens; 21 in 6 cohorts ranging 7-40 mg QW, 20 in 5 cohorts ranging 6-20 mg QDx3d QW, and 9 in 3 cohorts ranging 7-13 mg QDxSd QW. […] The MTD for intermittent dosing was not reached. All adverse events (AEs) reported were reversible. The most common (≧20%, n=35) AEs considered possibly related to compound A reported in all 3 dosing regimens included nausea (51%), hyperglycemia (37%), mucosal inflammation (29%), rash (23%), asthenia (23%), vomiting (26%), and diarrhea (20%). […]

[2] = test system: TORC1 (p4EBP1 and pS6) and TORC2 (pPRAS40); assay: Human skin immunohistochemistry assay (skin biopsies, Phase I trial); assay type: in vivo
Experimental: Skin tissue was fixed in 10% neutral-buffered formalin solution for 24 hours and then processed and embedded in paraffin block. Sections (4 μm) were cut and mounted onto microscopic slides. Sections were incubated with primary antibodies (p4EBP1, pS6, or pRAS40) overnight and developed using a chromogenic substrate.
Pharmacodynamic (PD) endpoints were evaluated in surrogate (peripheral blood cells [PBCs], skin) and tumor tissues for the phosphorylation of TORC1-dependent markers (4EBP1/S6), and TORC2-dependent markers (AKT/PRAS40). 50 patients were treated in 3 intermittent dosing regimens; 21 in 6 cohorts ranging 7-40 mg QW, 20 in 5 cohorts ranging 6-20 mg QDx3d QW, and 9 in 3 cohorts ranging 7-13 mg QDxSd QW. […] The MTD for intermittent dosing was not reached. All adverse events (AEs) reported were reversible. The most common (≧20%, n=35) AEs considered possibly related to compound A reported in all 3 dosing regimens included nausea (51%), hyperglycemia (37%), mucosal inflammation (29%), rash (23%), asthenia (23%), vomiting (26%), and diarrhea (20%). The majority of AEs considered possibly related to compound A in any regimen were Grade 1 or 2. The only reported Grade ≧3 AE (≧5%) possibly related to compound A in 3 regimens was lymphopenia (6%). Tables 4-9 show summaries of observed adverse events for various treatment regimens of the invention.

CC(C)n1nc(-c2ccc3oc(N)nc3c2)c2c(N)ncnc21 [compound A]
5 (5%): Grade 3 or greater TEAE: Hypophsphataemia ([1]; Total (N = 91))
9 (10%): Grade 3 or greater TEAE: Hyperglycaemia ([1]; Total (N = 91)) | Grade 3 or greater TEAE: Rash ([1]; Total (N = 91))
0 (0%): Grade 3 or greater TEAE: Muscular weakness ([1]; QDx5d QW (N = 15)) | Grade 3 or greater TEAE: Pruritus ([1]; QDx5d QW (N = 15)) | Grade 3 or greater TEAE: Thrombocytopenia ([1]; QDx5d QW (N = 15)) | Grade 3 or greater TEAE: Blood creatinine increase ([1]; QW Dosing (N = 22)) | Grade 3 or greater TEAE: Hyperglycaemia ([1]; QW Dosing (N = 22)) | Grade 3 or greater TEAE: Hyponatraemia ([1]; QW Dosing (N = 22)) | Grade 3 or greater TEAE: Hypophsphataemia ([1]; QW Dosing (N = 22)) | Grade 3 or greater TEAE: Mucosal Inflammation ([1]; QW Dosing (N = 22)) | Grade 3 or greater TEAE: Nausea ([1]; QW Dosing (N = 22)) | Grade 3 or greater TEAE: Pruritus ([1]; QW Dosing (N = 22)) | Grade 3 or greater TEAE: Rash ([1]; QW Dosing (N = 22)) | Grade 3 or greater TEAE: Thrombocytopenia ([1]; QW Dosing (N = 22))
7 (8%): Grade 3 or greater TEAE: Mucosal Inflammation ([1]; Total (N = 91))
8 (53%): Patients Reporting at least one Grade 3 or greater TEAE ([1]; QDx5d QW (N = 15))
10 (45%): Patients Reporting at least one Grade 3 or greater TEAE ([1]; QW Dosing (N = 22))
4 (4%): Grade 3 or greater TEAE: Asthenia ([1]; Total (N = 91))
53 (58%): Patients Reporting at least one Grade 3 or greater TEAE ([1]; Total (N = 91))
60-100%: pathway inhibition of TORC1 (p4EBP1 and pS6) and TORC2 (pPRAS40) ([2]; skin biopsies)
2 (2%): Grade 3 or greater TEAE: Aspartate aminotransferase increase ([1]; Total (N = 91)) | Grade 3 or greater TEAE: Blood creatinine increase ([1]; Total (N = 91)) | Grade 3 or greater TEAE: Deep vein thrombosis ([1]; Total (N = 91)) | Grade 3 or greater TEAE: Disease progression ([1]; Total (N = 91)) | Grade 3 or greater TEAE: Hyponatraemia ([1]; Total (N = 91)) | Grade 3 or greater TEAE: Muscular weakness ([1]; Total (N = 91)) | Grade 3 or greater TEAE: Nausea ([1]; Total (N = 91)) | Grade 3 or greater TEAE: Neutropenia ([1]; Total (N = 91)) | Grade 3 or greater TEAE: Thrombocytopenia ([1]; Total (N = 91))
2 (9%): Grade 3 or greater TEAE: Anaemia ([1]; QW Dosing (N = 22)) | Grade 3 or greater TEAE: Disease progression ([1]; QW Dosing (N = 22))
1 (7%): Grade 3 or greater TEAE: Nausea ([1]; QDx5d QW (N = 15)) | Grade 3 or greater TEAE: Neutropenia ([1]; QDx5d QW (N = 15)) | Grade 3 or greater TEAE: Rash ([1]; QDx5d QW (N = 15)) | Grade 3 or greater TEAE: Vomiting ([1]; QDx5d QW (N = 15))
80%: PD (% inhibition, H score) Skin: 4EBP1/PRAS40 ([2]; 10 mg Q5D) | PD (% inhibition, H score) Skin: 4EBP1/PRAS40 ([2]; 13 mg Q5D) | PD (% inhibition, H score) Skin: 4EBP1/PRAS40 ([2]; 16 mg Q3D) | PD (% inhibition, H score) Skin: 4EBP1/PRAS40 ([2]; 20 mg Q3D) | PD (% inhibition, H score) Skin: 4EBP1/PRAS40 ([2]; 30 mg QW) | PD (% inhibition, H score) Skin: 4EBP1/PRAS40 ([2]; 40 mg QW)
3 (3%): Grade 3 or greater TEAE: Diarrhoea ([1]; Total (N = 91)) | Grade 3 or greater TEAE: Fatigue ([1]; Total (N = 91)) | Grade 3 or greater TEAE: Gamma-glutamyltransferase increase ([1]; Total (N = 91)) | Grade 3 or greater TEAE: Hypokalaemia ([1]; Total (N = 91)) | Grade 3 or greater TEAE: Pruritus ([1]; Total (N = 91)) | Grade 3 or greater TEAE: Vomiting ([1]; Total (N = 91))
6 (7%): Grade 3 or greater TEAE: Anaemia ([1]; Total (N = 91)) | Grade 3 or greater TEAE: Lymphopenia ([1]; Total (N = 91))
1 (5%): Grade 3 or greater TEAE: Aspartate aminotransferase increase ([1]; QW Dosing (N = 22)) | Grade 3 or greater TEAE: Asthenia ([1]; QW Dosing (N = 22)) | Grade 3 or greater TEAE: Deep vein thrombosis ([1]; QW Dosing (N = 22)) | Grade 3 or greater TEAE: Diarrhoea ([1]; QW Dosing (N = 22)) | Grade 3 or greater TEAE: Fatigue ([1]; QW Dosing (N = 22)) | Grade 3 or greater TEAE: Gamma-glutamyltransferase increase ([1]; QW Dosing (N = 22)) | Grade 3 or greater TEAE: Hypokalaemia ([1]; QW Dosing (N = 22)) | Grade 3 or greater TEAE: Lymphopenia ([1]; QW Dosing (N = 22)) | Grade 3 or greater TEAE: Muscular weakness ([1]; QW Dosing (N = 22)) | Grade 3 or greater TEAE: Neutropenia ([1]; QW Dosing (N = 22)) | Grade 3 or greater TEAE: Vomiting ([1]; QW Dosing (N = 22))
Decreases in p4EBP1 levels were seen: p4EBP1 levels in PBC (p4E-BP1 (T37/46))
